Marks after values point to notes of the source that are not given here.
Key:
FXa = assay: Anti-FXa levels determined chromogenically (ACL-TOP) in plasma treated ex vivo with enoxaparin; assay type: biochemical, human; conditions: for Anti FXa levels (IU/mL): median
Text: (§1) Citrated plasma samples were thawed immediately prior to use. First, plasma from healthy, uninjured volunteers was used to optimize ex vivo dosing of enoxaparin. […] Given that the inventors spiked plasma with an enoxaparin dose of 0.13 IU/mL, our target anti-FXa level in response to enoxaparin was defined as 0.13 IU/mL. The responses to enoxaparin between healthy uninjured volunteers and trauma patients were compared by treating all plasma samples ex vivo with 0.13 IU/mL of enoxaparin. Trauma patient samples were additionally supplemented with AT using either FFP at a dose of 30% volume or AT concentrate in the form of THROMBATE III®, provided by Grifols, up to 80%, 120%, 150%, 180%, and 200% final concentration based on baseline values. This was done in an effort to improve patient plasma responses to enoxaparin to the levels observed in healthy controls. Similar to our previous work, the inventors chose FFP at a dose of 30% volume to model the effects of transfusing six units of plasma. Calculations were based on the activity (IUs) provided by the manufacturer for a given lot of THROMB ATE III® (approximately 500 IUs/10 mL) and the patient's baseline AT activity levels. AT supplementation was confirmed by measuring AT activity using ACL-TOP. Thrombin generation and anti-FXa levels were measured to assess the response to enoxaparin and supplementation with AT. Healthy volunteer plasma served as an uninjured control for normal AT, anti-FXa, and thrombin generation levels before and after treatment with enoxaparin.
(§2) AT activity and anti-FXa levels were determined chromogenically using an ACL-TOP Coagulation Analyzer (Instrumentation Laboratory, Bedford Mass.). Thrombin generation was measured using a calibrated automated thrombogram (CAT) (Thermo Fisher Scientific, Waltham Mass.) as previously described. Relevant parameters resulting from CAT analysis include lag time (the time to initiation of thrombin generation; min), peak (the highest amount of thrombin generated; nM), time to peak [ttpeak] (the time it takes to achieve the peak; min), endogenous thrombin potential [ETP] (the total amount of thrombin generated over time; […]), and rate (the velocity of thrombin generation dictated by the slope of the thrombin generation curve; nM/min).

thrombin generation = assay: Thrombin generation by calibrated automated thrombogram (CAT) in plasma treated ex vivo; assay type: biochemical, human; conditions: for Delta ETP (%) / Delta Lagtime (%) / Delta Peak (%) / Delta Rate (%) / Delta ttPeak (%): enoxaparin 0.13 U/mL, median change vs baseline
Text: as §1, §2

[1] = Healthy Donors (N = 15) plasma, enoxaparin 0.13 U/mL
[2] = No PE patients (N = 46) plasma, enoxaparin 0.13 U/mL
[3] = PE patients (N = 54) plasma, enoxaparin 0.13 U/mL
[4] = Trauma Patients (N = 100) plasma, enoxaparin 0.13 U/mL
[5] = Trauma Patients (N = 100) plasma

enoxaparin
Rate Anti FXa ≥ 0.13 (number) (FXa; [1]): 15
Rate Anti FXa ≥ 0.13 (percentage) (FXa; [1]): (100%)
Anti FXa levels (IU/mL) (FXa; [1]): 0.16 IU/mL
Rate Anti FXa ≥ 0.13 (number) (FXa; [2]): 26
Rate Anti FXa ≥ 0.13 (percentage) (FXa; [2]): (57%)
Anti FXa levels (IU/mL) (FXa; [2]): 0.14 IU/mL
Rate Anti FXa ≥ 0.13 (number) (FXa; [3]): 24
Rate Anti FXa ≥ 0.13 (percentage) (FXa; [3]): (44%)
Anti FXa levels (IU/mL) (FXa; [3]): 0.13 IU/mL
Rate Anti FXa ≥ 0.13 (number) (FXa; [4]): 59
Rate Anti FXa ≥ 0.13 (percentage) (FXa; Trauma Patients (N = 100) plasma, enoxaparin 0.13 U/mL alone): (59%)*
Rate Anti FXa ≥ 0.13 (percentage) (FXa; Trauma Patients (N = 100) plasma, enoxaparin 0.13 U/mL alone, listed as enoxaparin): 59%
Anti FXa levels (IU/mL) (FXa; [4]): 0.13 IU/mL
Delta ETP (%) (thrombin generation; Healthy Donors (N = 15) plasma): −43%
Delta Lagtime (%) (thrombin generation; Healthy Donors (N = 15) plasma): 6.6%
Delta Peak (%) (thrombin generation; Healthy Donors (N = 15) plasma): −55%
Delta Rate (%) (thrombin generation; Healthy Donors (N = 15) plasma): −65%
Delta ttPeak (%) (thrombin generation; Healthy Donors (N = 15) plasma): 17%
Delta ETP (%) (thrombin generation; No PE patients (N = 46) plasma): −15.6%
Delta Lagtime (%) (thrombin generation; No PE patients (N = 46) plasma): 6.6%
Delta Peak (%) (thrombin generation; No PE patients (N = 46) plasma): −30.6%
Delta Rate (%) (thrombin generation; No PE patients (N = 46) plasma): −45.4%
Delta ttPeak (%) (thrombin generation; No PE patients (N = 46) plasma): 13.0%
Delta ETP (%) (thrombin generation; PE patients (N = 54) plasma): −13.2%
Delta Lagtime (%) (thrombin generation; PE patients (N = 54) plasma): 7.9%
Delta Peak (%) (thrombin generation; PE patients (N = 54) plasma): −20.7%
Delta Rate (%) (thrombin generation; PE patients (N = 54) plasma): −34.2%
Delta ttPeak (%) (thrombin generation; PE patients (N = 54) plasma): 10.7%
Delta ETP (%) (thrombin generation; [5]): −14%
Delta Lagtime (%) (thrombin generation; [5]): 7.9%
Delta Peak (%) (thrombin generation; [5]): −24%
Delta Rate (%) (thrombin generation; [5]): −39%
Delta ttPeak (%) (thrombin generation; [5]): 12%
reduction in peak thrombin (thrombin generation; plasma of patients who did develop PE, ex vivo enoxaparin): 20.7%
median reduction in peak thrombin (thrombin generation; plasma of patients who did not develop PE, ex vivo enoxaparin): 30.6%
